For one data set, the system named is WM 266-4. The experiment in a line: cells. The data set is classed as functional, cell-based. The note with it: Homo sapiens, WM 266-4, 48 h.
In data set [1] the test system is HCT-116. The experiment in a line: cells. The format is functional, cell-based. Conditions: Homo sapiens, HCT-116, 48 h.
Description: Antiproliferative activity against human HCT116 cells assessed as inhibition of cell viability after 48 hrs by MTS assay
For data set [2], the system named is HCT-116. The data set can be described thus: Potency index, ratio of dihydroartemisinin IC50 to compound IC50 for antiproliferative activity against human HCT116 cells by MTS assay. The data set is classed as functional. In general terms: Tetrazolium dyes change colour on reduction, which living cells bring about.
The test system of data set [3] is HCT-116. The note with it: Homo sapiens, at 10 mg/kg.
Description: Antitumour activity against human HCT116 cells xenografted in BALB/c nude mouse assessed as reduction in tumour growth at 10 mg/kg, ip administered daily for 18 days started from 2 days after tumor cell inoculation by digital caliper method
For data set [4], the system named is HCT-116. The experiment in a line: Antitumour activity against human HCT116 cells xenografted in BALB/c nude mouse assessed as delay in tumour growth at 2.5 to 5 mg/kg, ip administered daily for 18 days started from 2 days after tumor cell inoculation by digital caliper method. The data set is classed as functional, organism-based. (Xenograft models place foreign cells or tissue in a host animal.)

The nature of data set [5]: Toxicity in BALB/c nude mouse xenografted with human HCT116 cells assessed as effect on body weight at 2.5 to 5 mg/kg, ip administered daily for 18 days. Conditions: in vivo, 432 h. The data set is classed as organism-based.
Data set [6] deals with HCT-116. The data set can be described thus: Antitumour activity against human HCT116 cells xenografted in BALB/c nude mouse assessed as tumour shrunken at 2.5 to 5 mg/kg, ip administered daily for 18 days started from 2 days after tumor cell inoculation by digital caliper method. The data set is classed as functional, organism-based.

Active and inactive are the calls of the source. The calls are words filed in the database; no cut-off is given here. Some results are limits rather than exact numbers.

Description for WM 266-4: Antiproliferative activity against human WM266.4 cells assessed as inhibition of cell viability after 48 hrs by MTS assay

As a reminder, the IC50 is the concentration needed to halve the response being measured. High values mean lower potency, low ones higher potency. As to `C[C@H]1[C@@H](OCCCCOCc2ccc3ncnc(Nc4ccc(F)c(Cl)c4)c3c2)O[C@@H]2O[C@@]3(C)CC[C@H]4[C@H](C)CC[C@@H]1[C@@]24OO3`, the IC50 in the data set on WM 266-4 turned out to be 3.81 µM; with HCT-116 [1], 0.36 µM.
In the same order, the values of `C[C@H]1[C@H](OC(=O)CCC(=O)O)O[C@@H]2O[C@@]3(C)CC[C@H]4[C@H](C)CC[C@@H]1[C@@]24OO3` [ARTESUNATE] are 8.46 µM and 0.89 µM.
Regarding `C[C@H]1[C@H](OCCCCOCc2ccc3ncnc(Nc4ccc(F)c(Cl)c4)c3c2)O[C@@H]2O[C@@]3(C)CC[C@H]4[C@H](C)CC[C@@H]1[C@@]24OO3`, the results for the IC50 in the data set with WM 266-4 and in the data set with HCT-116 [1] were 12.6 µM and 2.42 µM, respectively.
For `C[C@H]1[C@H](OCCCOCc2ccc3ncnc(Nc4ccc(F)c(Cl)c4)c3c2)O[C@@H]2O[C@@]3(C)CC[C@H]4[C@H](C)CC[C@@H]1[C@@]24OO3`, in that order: 15.8 µM and 6.54 µM.
As for `C[C@H]1[C@H](OCc2ccc3ncnc(Nc4ccc(F)c(Cl)c4)c3c2)O[C@@H]2O[C@@]3(C)CC[C@H]4[C@H](C)CC[C@@H]1[C@@]24OO3`, the half-maximal inhibitory concentration (IC50) with WM 266-4 amounted to 4.56 µM; in the data set on HCT-116 [1] it was 0.42 µM.
For `C[C@H]1[C@@H](OCc2ccc3ncnc(Nc4ccc(F)c(Cl)c4)c3c2)O[C@@H]2O[C@@]3(C)CC[C@H]4[C@H](C)CC[C@@H]1[C@@]24OO3`, in that order: 10.8 µM and 0.29 µM.
In the same order, the values of `C[C@H]1[C@H](OC(=O)CCCC(=O)OCc2ccc3ncnc(Nc4ccc(F)c(Cl)c4)c3c2)O[C@@H]2O[C@@]3(C)CC[C@H]4[C@H](C)CC[C@@H]1[C@@]24OO3` are 11.4 µM and 0.29 µM.
As for `C[C@@H]1CC[C@H]2[C@@H](C)C(O[C@@H](C(=O)OCc3ccc4ncnc(Nc5ccc(F)c(Cl)c5)c4c3)c3ccccc3)O[C@@H]3O[C@@]4(C)CC[C@@H]1[C@]32OO4` (stereo partly drawn), half-maximal inhibition with HCT-116 [1] (IC50) was put at 0.68 µM.
As to `C[C@H]1[C@H](NC(=O)CCCCC(=O)OCc2ccc3ncnc(Nc4ccc(F)c(Cl)c4)c3c2)O[C@@H]2O[C@@]3(C)CC[C@H]4[C@H](C)CC[C@@H]1[C@@]24OO3`, the figures for the IC50 in the data set on WM 266-4 and with HCT-116 [1] were 25.3 µM and 5.68 µM, respectively.
On to `C[C@H]1[C@H](OC(=O)CCC(=O)OCc2ccc3ncnc(Nc4ccc(F)c(Cl)c4)c3c2)O[C@@H]2O[C@@]3(C)CC[C@H]4[C@H](C)CC[C@@H]1[C@@]24OO3`, for which the concentration for half-maximal inhibition (IC50) is 10.2 µM with WM 266-4 and 0.18 µM in the data set with HCT-116 [1].
In the same order, the values of `C[C@H]1[C@H](OCCCCCOc2ccc3ncnc(Nc4ccc(F)c(Cl)c4)c3c2)O[C@@H]2O[C@@]3(C)CC[C@H]4[C@H](C)CC[C@@H]1[C@@]24OO3` are 5.7 µM and 0.35 µM.
`CC(=O)O[C@H]1C(=O)[C@@]2(C)[C@H]([C@H](OC(=O)c3ccccc3)[C@]3(O)C[C@H](OC(=O)[C@H](O)[C@@H](NC(=O)c4ccccc4)c4ccccc4)C(C)=C1C3(C)C)[C@]1(OC(C)=O)CO[C@@H]1C[C@@H]2O` [PACLITAXEL] showed a half-inhibitory concentration (IC50) in the data set on WM 266-4 of 0.00032 µM.
Consider `C[C@H]1[C@H](NC(=O)CCC(=O)OCc2ccc3ncnc(Nc4ccc(F)c(Cl)c4)c3c2)O[C@@H]2O[C@@]3(C)CC[C@H]4[C@H](C)CC[C@@H]1[C@@]24OO3`, for which the half-maximal inhibitory concentration (IC50) with WM 266-4 worked out at 9.88 µM; with HCT-116 [1] it was 2.78 µM.
On to `C[C@H]1[C@@H](OCCCCCOc2ccc3ncnc(Nc4ccc(F)c(Cl)c4)c3c2)O[C@@H]2O[C@@]3(C)CC[C@H]4[C@H](C)CC[C@@H]1[C@@]24OO3`, for which the “Ratio IC50” value with HCT-116 [2] came to 10. Moreover, the IC50 is 2.91 µM in the data set with WM 266-4 and 0.24 µM in the data set with HCT-116 [1].
Regarding `C[C@H]1[C@H](OC[C@H](N)c2ccccc2)O[C@@H]2O[C@@]3(C)CC[C@H]4[C@H](C)CC[C@@H]1[C@@]24OO3`, the IC50 in the data set on WM 266-4 stood at 15.1 µM; in the data set on HCT-116 [1] it was 16.2 µM.
For `CC(=O)N(c1ccc(F)c(Cl)c1)c1ncnc2ccc(COC(=O)CCC(=O)O[C@@H]3O[C@@H]4O[C@@]5(C)CC[C@H]6[C@H](C)CC[C@@H]([C@H]3C)[C@@]46OO5)cc12`, in that order: 9.29 µM and 0.28 µM.
For `C[C@H]1[C@H](OC(=O)CCCCC(=O)OCc2ccc3ncnc(Nc4ccc(F)c(Cl)c4)c3c2)O[C@@H]2O[C@@]3(C)CC[C@H]4[C@H](C)CC[C@@H]1[C@@]24OO3`, in that order: 3.51 µM and 0.31 µM.
In the case of `C[C@H]1[C@H](NC(=O)CCCC(=O)OCc2ccc3ncnc(Nc4ccc(F)c(Cl)c4)c3c2)O[C@@H]2O[C@@]3(C)CC[C@H]4[C@H](C)CC[C@@H]1[C@@]24OO3`, the 50% inhibitory concentration (IC50) with WM 266-4 is 15.3 µM; in the data set with HCT-116 [1], 5.56 µM.
For `C[C@H]1[C@H](O)O[C@@H]2O[C@@]3(C)CC[C@H]4[C@H](C)CC[C@@H]1[C@@]24OO3`, the inhibition entry with HCT-116 [3] is “Active”. Further, the IC50 in the data set on WM 266-4 is greater than 40 µM; in the data set with HCT-116 [1] it was 2.85 µM.
Take `C[C@H]1[C@H](OC[C@H](NC(=O)c2ccc3ncnc(Nc4ccc(F)c(Cl)c4)c3c2)c2ccccc2)O[C@@H]2O[C@@]3(C)CC[C@H]4[C@H](C)CC[C@@H]1[C@@]24OO3`: in the data set with HCT-116 [4], the inhibition entry is “Active”. Moreover, the Activity result in data set [5] is listed as “Non-Toxic”. In addition, the outcome with HCT-116 [6] was Active. Besides, the half-maximal inhibitory concentration (IC50) worked out at 6.67 µM with WM 266-4 and 0.11 µM in the data set with HCT-116 [1].
On to `CC(=O)N(c1ccc(F)c(Cl)c1)c1ncnc2ccc(COC(=O)CCCC(=O)N[C@@H]3O[C@@H]4O[C@@]5(C)CC[C@H]6[C@H](C)CC[C@@H]([C@H]3C)[C@@]46OO5)cc12`, for which the IC50 in the data set on WM 266-4 came to 5.08 µM; in the data set on HCT-116 [1] it was 5.35 µM.
In the same order, the values of `CC(=O)N(c1ccc(F)c(Cl)c1)c1ncnc2ccc(COC(=O)CCCC(=O)O[C@@H]3O[C@@H]4O[C@@]5(C)CC[C@H]6[C@H](C)CC[C@@H]([C@H]3C)[C@@]46OO5)cc12` are 15 µM and 0.78 µM.
For `O=C(O)c1ccc2ncnc(Nc3ccc(F)c(Cl)c3)c2c1`, the IC50 in the data set with WM 266-4 and with HCT-116 [1] was greater than 40 µM throughout.
For the molecule `C[C@@H]1CC[C@H]2[C@@H](C)C(O[C@H](C(=O)OCc3ccc4ncnc(Nc5ccc(F)c(Cl)c5)c4c3)c3ccccc3)O[C@@H]3O[C@@]4(C)CC[C@@H]1[C@]32OO4` (stereo partly drawn), the half-inhibitory concentration (IC50) with HCT-116 [1] turned out to be 0.89 µM.
In the case of `C[C@H]1[C@@H](OCCCOCc2ccc3ncnc(Nc4ccc(F)c(Cl)c4)c3c2)O[C@@H]2O[C@@]3(C)CC[C@H]4[C@H](C)CC[C@@H]1[C@@]24OO3`, the figures for the IC50 in the data set with WM 266-4 and in the data set with HCT-116 [1] were 5.18 µM and 2.11 µM, respectively.
On to `CC(=O)N(c1ccc(F)c(Cl)c1)c1ncnc2ccc(COC(=O)CCCCC(=O)O[C@@H]3O[C@@H]4O[C@@]5(C)CC[C@H]6[C@H](C)CC[C@@H]([C@H]3C)[C@@]46OO5)cc12`, for which the IC50 in the data set on WM 266-4 was determined as 18.8 µM; with HCT-116 [1], 0.66 µM.
Turning to `CC(=O)N(c1ccc(F)c(Cl)c1)c1ncnc2ccc(COC(=O)CCC(=O)N[C@@H]3O[C@@H]4O[C@@]5(C)CC[C@H]6[C@H](C)CC[C@@H]([C@H]3C)[C@@]46OO5)cc12`, the 50% inhibitory concentration (IC50) with WM 266-4 stood at 15.4 µM; with HCT-116 [1] it was 12.9 µM.
In the case of `CC(=O)N(c1ccc(F)c(Cl)c1)c1ncnc2ccc(COC(=O)CCCCC(=O)N[C@@H]3O[C@@H]4O[C@@]5(C)CC[C@H]6[C@H](C)CC[C@@H]([C@H]3C)[C@@]46OO5)cc12`, the half-maximal inhibitory concentration (IC50) in the data set with WM 266-4 turned out to be 27.8 µM; with HCT-116 [1] it was 11.8 µM.

Source of the values: ChEMBL document CHEMBL4406840, “Design and synthesis of novel artemisinin derivatives with potent activities against colorectal cancer in vitro and in vivo” (Eur J Med Chem, 2019).
